Reference: patent US6613786B2, “Thiophenyl triazol-3-one derivatives as smooth muscle relaxants” (Bristol-Myers Squibb Company, priority 2001, dated 2003)

system: rat bladder strip; test: in vitro rat bladder strip model: inhibition of 10 μM carbachol induced contraction; settings: 1 h; test compound at 3 μM, one hour incubation; 10 μM carbachol induced contraction of rat bladder strip; percent inhibition over controls, normalized for vehicle effects
Method: The ability of the compounds of the present invention to relax smooth muscle tissue was assessed by their ability to inhibit carbachol induced contractions in mammalian smooth muscle tissue. More specifically, the compounds of the present invention were screened in an in vitro rat bladder strip model to estimate their inhibitory effects on 10 μM carbachol induced contraction of the rat bladder strip according to the following experimental protocol.
1. Bladder Strip Tissue Preparation
Male rats were sacrificed by decapitation, the bladder removed and cleaned of connective tissue. Strips of bladder were then cut from the bladder body and placed in organ baths, suspended between a fixed hook and a force transducer, containing oxygenated physiological buffer maintained at 37° C.
The bladder strips were primed by stimulating them with 10 μM carbachol to evoke a contraction. The strips were then washed multiple times with fresh physiological buffer and allowed to fully relax. Following a period of recovery, the strips were again challenged with 10 μM carbachol to produce a contraction; this contractile response served as control response. The strips were again washed multiple times and allowed to fully relax (45 minutes). Test compound (3 μM) or vehicle was then added to each organ bath. Following a one hour incubation period, the strips were again stimulated with 10 μM carbachol and the contractile response measured.
The percent inhibition of the carbachol response by the test compounds was calculated by comparing control and post-compound carbachol responses normalized for vehicle effects. The percentage inhibition for each compound at 3 μM concentration is provided below in Table 1.

Row | SMILES | inhibition at 3 µM [%]
1 | O=c1[nH]c(-c2ccc(Br)s2)nn1-c1cc(Cl)ccc1O [Example 1, 5-(5-Bromothiophen-2-yl)-2-(5-chloro-2-hydroxyphenyl)-2,4-dihydro-[1,2,4]triazol-3-one] | 35 to 50
2 | O=c1[nH]c(-c2ccc(Cl)s2)nn1-c1cc(Cl)ccc1O [Example 2, 2-(5-Chloro-2-hydroxyphenyl)-5-(5-chlorothiophen-2-yl)-2,4-dihydro-[1,2,4]triazol-3-one] | 35 to 50
3 | O=c1[nH]c(-c2ccc(I)s2)nn1-c1cc(Cl)ccc1O [Example 3, 2-(5-Chloro-2-hydroxyphenyl)-5-(5-iodothiophen-2-yl)-2,4-dihydro-[1,2,4]triazol-3-one] | 35 to 50
4 | O=c1[nH]c(-c2cc(Br)cs2)nn1-c1cc(Cl)ccc1O [Example 4, 5-(4-Bromothiophen-2-yl)-2-(5-chloro-2-hydroxyphenyl)-2,4-dihydro-[1,2,4]triazol-3-one] | 35 to 50
5 | O=c1[nH]c(-c2cc(Cl)cs2)nn1-c1cc(Cl)ccc1O [Example 5, 5-(4-Chlorothiophen-2-yl)-2-(5-chloro-2-hydroxyphenyl)-2,4-dihydro-[1,2,4]triazol-3-one] | 35 to 50
6 | O=c1[nH]c(-c2sccc2Br)nn1-c1cc(Cl)ccc1O [Example 6, 5-(3-Bromothiophen-2-yl)-2-(5-chloro-2-hydroxyphenyl)-2,4-dihydro-[1,2,4]triazol-3-one] | 35 to 50
7 | O=c1[nH]c(-c2sccc2Cl)nn1-c1cc(Cl)ccc1O [Example 7, 2-(5-Chloro-2-hydroxyphenyl)-5-(3-chlorothiophen-2-yl)-2,4-dihydro-[1,2,4]triazol-3-one] | 35 to 50
8 | O=c1[nH]c(-c2sccc2I)nn1-c1cc(Cl)ccc1O [Example 8, 2-(5-Chloro-2-hydroxyphenyl)-5-(3-iodothiophen-2-yl)-2,4-dihydro-[1,2,4]triazol-3-one] | 20 to 35
9 | O=c1[nH]c(-c2cc(Br)c(Br)s2)nn1-c1cc(Cl)ccc1O [Example 9, 2-(5-Chloro-2-hydroxyphenyl)-5-(4,5-dibromothiophen-2-yl)-2,4-dihydro-[1,2,4]triazol-3-one] | 5 to 20
10 | O=c1[nH]c(-c2cc(Cl)c(Cl)s2)nn1-c1cc(Cl)ccc1O [Example 10, 2-(5-Chloro-2-hydroxyphenyl)-5-(4,5-dichlorothiophen-2-yl)-2,4-dihydro-[1,2,4]triazol-3-one] | 20 to 35
11 | O=c1[nH]c(-c2cc(Br)c(Cl)s2)nn1-c1cc(Cl)ccc1O [Example 11, 5-(4-Bromo-5-chlorothiophen-2-yl)-2-(5-chloro-2-hydroxyphenyl)-2,4-dihydro-[1,2,4]triazol-3-one] | 20 to 35
12 | O=c1[nH]c(-c2scc(Br)c2Br)nn1-c1cc(Cl)ccc1O [Example 12, 2-(5-Chloro-2-hydroxyphenyl)-5-(3,4-dibromothiophen-2-yl)-2,4-dihydro-[1,2,4]triazol-3-one] | 20 to 35
13 | O=c1[nH]c(-c2scc(Cl)c2Cl)nn1-c1cc(Cl)ccc1O [Example 13, 2-(5-Chloro-2-hydroxyphenyl)-5-(3,4-dichlorothiophen-2-yl)-2,4-dihydro-[1,2,4]triazol-3-one] | 35 to 50
14 | O=c1[nH]c(-c2sc(Br)cc2Br)nn1-c1cc(Cl)ccc1O [Example 14, 2-(5-Chloro-2-hydroxyphenyl)-5-(3,5-dibromothiophen-2-yl)-2,4-dihydro-[1,2,4]triazol-3-one] | 35 to 50
15 | O=c1[nH]c(-c2sc(Br)c(Br)c2Br)nn1-c1cc(Cl)ccc1O [Example 15, 2-(5-Chloro-2-hydroxyphenyl)-5-(3,4,5-tribromothiophen-2-yl)-2,4-dihydro-[1,2,4]triazol-3-one] | 5 to 20
16 | O=c1[nH]c(-c2sc(Cl)c(Cl)c2Cl)nn1-c1cc(Cl)ccc1O [Example 16, 2-(5-Chloro-2-hydroxyphenyl)-5-(3,4,5-trichlorothiophen-2-yl)-2,4-dihydro-[1,2,4]triazol-3-one] | 20 to 35

Row | SMILES | inhibition at 3 µM [%]
17 | Cc1sc(-c2nn(-c3cc(Cl)ccc3O)c(=O)[nH]2)cc1Br [Example 17, 5-(4-Bromo-5-methylthiophen-2-yl)-2-(5-chloro-2-hydroxyphenyl)-2,4-dihydro-[1,2,4]triazol-3-one] | 20 to 35
18 | O=c1[nH]c(-c2cc(Br)sc2Br)nn1-c1cc(Cl)ccc1O [Example 18, 2-(5-Chloro-2-hydroxyphenyl)-5-(2,5-dibromothiophen-3-yl)-2,4-dihydro-[1,2,4]triazol-3-one] | 20 to 35
19 | O=c1[nH]c(-c2cc(Cl)sc2Cl)nn1-c1cc(Cl)ccc1O [Example 19, 2-(5-Chloro-2-hydroxyphenyl)-5-(2,5-dichlorothiophen-3-yl)-2,4-dihydro-[1,2,4]triazol-3-one] | 35 to 50
20 | C=CCc1cc(Cl)cc(-n2nc(-c3ccc(Br)s3)[nH]c2=O)c1O [Example 20, 2-(3-Allyl-5-chloro-2-hydroxyphenyl)-5-(5-bromothiophen-2-yl)-2,4-dihydro-[1,2,4]triazol-3-one] | 20 to 35
21 | O=c1[nH]c(-c2ccc(Br)s2)nn1-c1cc(Cl)cc(Br)c1O [Example 21, 2-(3-Bromo-5-chloro-2-hydroxyphenyl)-5-(5-bromothiophen-2-yl)-2,4-dihydro-[1,2,4]triazol-3-one] | 20 to 35
22 | Cc1cc(Cl)cc(-n2nc(-c3ccc(Br)s3)[nH]c2=O)c1O [Example 22, 5-(5-Bromothiophen-2-yl)-2-(5-chloro-2-hydroxy-3-methylphenyl)-2,4-dihydro-[1,2,4]triazol-3-one] | 20 to 35
23 | O=c1[nH]c(-c2ccc(Br)s2)nn1-c1cc(Cl)cc(Cl)c1O [Example 23, 5-(5-Bromothiophen-2-yl)-2-(3,5-dichloro-2-hydroxyphenyl)-2,4-dihydro-[1,2,4]triazol-3-one] | 20 to 35
24 | Cc1cc(O)c(-n2nc(-c3ccc(Br)s3)[nH]c2=O)cc1Cl [Example 24, 5-(5-Bromothiophen-2-yl)-2-(5-chloro-2-hydroxy-4-methylphenyl)-2,4-dihydro-[1,2,4]triazol-3-one] | 20 to 35
25 | O=c1[nH]c(-c2ccc(Br)s2)nn1-c1cc(Cl)c(Br)cc1O [Example 25, 2-(4-Bromo-5-chloro-2-hydroxyphenyl)-5-(5-bromothiophen-2-yl)-2,4-dihydro-[1,2,4]triazol-3-one] | 20 to 35
26 | O=c1[nH]c(-c2ccc(Br)s2)nn1-c1cc(C(F)(F)F)ccc1O [Example 26, 5-(5-Bromothiophen-2-yl)-2-(2-hydroxy-5-trifluoromethylphenyl)-2,4-dihydro-[1,2,4]triazol-3-one] | 35 to 50
27 | O=c1[nH]c(-c2ccc(Br)s2)nn1-c1cc(Br)ccc1O [Example 27, 2-(5-Bromo-2-hydroxyphenyl)-5-(5-bromothiophen-2-yl)-2,4-dihydro-[1,2,4]triazol-3-one] | 35 to 50
28 | O=c1[nH]c(-c2ccc(Br)s2)nn1-c1cc(F)ccc1O [Example 28, 5-(5-Bromothiophen-2-yl)-2-(5-fluoro-2-hydroxyphenyl)-2,4-dihydro-[1,2,4]triazol-3-one] | 20 to 35
29 | CC=Cc1cc(Cl)cc(-n2nc(-c3ccc(Br)s3)[nH]c2=O)c1O [Example 29, 5-(5-Bromothiophen-2-yl)-2-(5-chloro-2-hydroxy-3-(prop-1-en-1-yl)phenyl)-2,4-dihydro-[1,2,4]triazol-3-one] | 20 to 35
30 | CCCc1cc(Cl)cc(-n2nc(-c3cccs3)[nH]c2=O)c1O [Example 30, 2-(5-Chloro-2-hydroxy-3-propylphenyl)-5-(thiophen-2-yl)-2,4-dihydro-[1,2,4]triazol-3-one] | 20 to 35
31 | O=c1[nH]c(-c2ccc(Cl)s2)nn1-c1cc(Br)ccc1O [Example 31, 2-(5-Bromo-2-hydroxyphenyl)-5-(5-chlorothiophen-2-yl)-2,4-dihydro-[1,2,4]triazol-3-one] | 20 to 35
32 | O=c1[nH]c(-c2ccc(Cl)s2)nn1-c1cc(F)ccc1O [Example 32, 5-(5-Chlorothiophen-2-yl)-2-(5-fluoro-2-hydroxyphenyl)-2,4-dihydro-[1,2,4]triazol-3-one] | 35 to 50
